Experimental data from US9546173B2 (Novartis AG, priority 2012, dated 2017).

These compounds were tested against activated ERK2 (Homo sapiens (Human), UniProt P28482) (assay: Activated ERK2 kinase assay (AlphaScreen, ERKtide peptide phosphorylation)). Settings: […] ERK2, 200 nM ERKtide peptide, 35 μM ATP, 30 min preincubation; read-out: ERK2 IC50.
Format: biochemical
Excerpt: Production of Activated ERK2 Protein:
Activated ERK2 protein was generated in insect cells by co-expression with a constitutively active form of MEK1. The ERK2 protein was expressed and purified as a nHis-PreScission-ERK2 tagged protein and then proteolytically processed to the full-length wild-type protein. […] Double-phosphorylated ERK2 protein was purified from the mixture by mono-Q column separation.
Activated ERK2 Kinase Assay:
A 16-point, half-log dilution series of compounds at 41× final concentration was used for generating IC50 curves. Compound dilution series were prepared in 100% DMSO. ERK2 was preincubated with compounds for 30 minutes at ambient temperature. Reaction was initiated by addition of a substrate cocktail of ERKtide peptide and ATP and was allowed to proceed for 2-3 hours at ambient temperature. Reaction was terminated by addition of 10 μL of a 2× stop buffer consisting of 100 mM Tris-Cl [pH 7.5], 25 mM EDTA, 0.01% Tween 20, 10 μg/mL of AlphaScreen Protein A Acceptor Beads, 10 μg/mL of Streptavidin Donor Beads (PerkinElmer, Waltham, Mass.), and 1.4 μg/mL phospho-EGF Receptor (Thr669) antibody (Cat #3056, Cell Signaling Technology, Danvers, Mass.). Terminated reactions were read, after overnight incubation in the dark, on an EnVision Multilabel Plate Reader (PerkinElmer, Waltham, Mass.), with excitation and emission wavelengths set to 680 nm and 570 nm, respectively. IC50 values were determined using a four-parameter fit.

Chain of activated ERK2 (P28482 whole entry): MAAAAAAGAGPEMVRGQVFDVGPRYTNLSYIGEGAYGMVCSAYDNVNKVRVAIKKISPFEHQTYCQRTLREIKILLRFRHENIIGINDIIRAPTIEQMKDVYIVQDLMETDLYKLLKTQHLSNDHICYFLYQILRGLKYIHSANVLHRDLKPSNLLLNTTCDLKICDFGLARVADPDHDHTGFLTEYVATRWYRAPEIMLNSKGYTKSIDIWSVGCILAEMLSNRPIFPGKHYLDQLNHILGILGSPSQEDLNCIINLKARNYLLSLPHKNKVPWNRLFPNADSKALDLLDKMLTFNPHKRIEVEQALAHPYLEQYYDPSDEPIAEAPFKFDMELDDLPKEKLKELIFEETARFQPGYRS

Row | IC50 [nM] | Structure (SMILES)
1 | 6 | CC1(C)c2cnc(NC3CCOCC3)nc2CN1C(=O)NCc1ccc(Cl)c(F)c1 [compound 124, N-(4-chloro-3-fluorobenzyl)-5,5-dimethyl-2-((tetrahydro-2H-pyran-4-yl)amino)-5H-pyrrolo[3,4-d]pyrimidine-6(7H)-carboxamide]
2 | 16 | CCS(=O)(=O)c1cccc(CNC(=O)N2Cc3nc(NC4CCOCC4)ncc3C2(C)C)c1 [compound 111, N-(3-(ethylsulfonyl)benzyl)-5,5-dimethyl-2-((tetrahydro-2H-pyran-4-yl)amino)-5H-pyrrolo[3,4-d]pyrimidine-6(7H)-carboxamide]
3 | 39 | CCCS(=O)(=O)c1cccc(CNC(=O)N2Cc3nc(NC4CCOCC4)ncc3C2(C)C)c1 [compound 110, 5,5-dimethyl-N-(3-(propylsulfonyl)benzyl)-2-((tetrahydro-2H-pyran-4-yl)amino)-5H-pyrrolo[3,4-d]pyrimidine-6(7H)-carboxamide]
4 | 315 | CC(Nc1ncc2c(n1)CN(C(=O)N[C@H](CO)c1ccccc1)C2(C)C)C1CCCO1 (stereo partly drawn) [compound 73, N-((S)-2-hydroxy-1-phenylethyl)-5,5-dimethyl-2-((1-(tetrahydrofuran-2-yl)ethyl)amino)-5H-pyrrolo[3,4-d]pyrimidine-6(7H)-carboxamide]
5 | 12 | O=C(Nc1cnn(Cc2ccccc2F)c1)N1Cc2nc(NC3CCOCC3)ncc2C12CCC2 [compound 99, N-(1-(2-fluorobenzyl)-1H-pyrazol-4-yl)-2′-((tetrahydro-2H-pyran-4-yl)amino)spiro[cyclobutane-1,5′-pyrrolo[3,4-d]pyrimidine]-6′(7′H)-carboxamide]
6 | 107 | CC1(C)c2cnc(Nc3ccc(F)cc3)nc2CN1C(=O)N[C@H](CO)c1ccccc1 [compound 52, (S)-2-((4-fluorophenyl)amino)-N-(2-hydroxy-1-phenylethyl)-5,5-dimethyl-5H-pyrrolo[3,4-d]pyrimidine-6(7H)-carboxamide]
7 | 16 | Cc1cccc([C@@H](CO)NC(=O)N2Cc3nc(NC4CCOCC4)ncc3C2(C)C)c1 [compound 127, (S)-N-(2-hydroxy-1-(m-tolyl)ethyl)-5,5-dimethyl-2-((tetrahydro-2H-pyran-4-yl)amino)-5H-pyrrolo[3,4-d]pyrimidine-6(7H)-carboxamide]
8 | 32 | C[C@@H](NC(=O)N1Cc2nc(NC3CCOCC3)ncc2C1(C)C)c1ccc(S(C)(=O)=O)cc1 [compound 139, (R)-5,5-dimethyl-N-(1-(4-(methylsulfonyl)phenyl)ethyl)-2-((tetrahydro-2H-pyran-4-yl)amino)-5H-pyrrolo[3,4-d]pyrimidine-6(7H)-carboxamide]
9 | 7 | CC1(C)c2cnc(NC3CCOCC3)nc2CN1C(=O)NCc1ccc(Br)cc1 [compound 123, N-(4-bromobenzyl)-5,5-dimethyl-2-((tetrahydro-2H-pyran-4-yl)amino)-5H-pyrrolo[3,4-d]pyrimidine-6(7H)-carboxamide]
10 | 457 | C[C@H](NC(=O)N1Cc2nc(NC3CCOCC3)ncc2C1(C)C)c1cc(F)cc(S(C)(=O)=O)c1 [compound 116, (S)-N-(1-(3-fluoro-5-(methylsulfonyl)phenyl)ethyl)-5,5-dimethyl-2-((tetrahydro-2H-pyran-4-yl)amino)-5H-pyrrolo[3,4-d]pyrimidine-6(7H)-carboxamide]
11 | 71 | CC1(C)c2cnc(NC3CCOCC3)nc2CN1C(=O)NCc1cccc(S(=O)(=O)C2CC2)c1 [compound 130, N-(3-(cyclopropylsulfonyl)benzyl)-5,5-dimethyl-2-((tetrahydro-2H-pyran-4-yl)amino)-5H-pyrrolo[3,4-d]pyrimidine-6(7H)-carboxamide]
12 | 9 | CC1(C)c2cnc(NC3CCOCC3)nc2CN1C(=O)N[C@H](CO)c1cccc(F)c1 [compound 128, (S)-N-(1-(3-fluorophenyl)-2-hydroxyethyl)-5,5-dimethyl-2-((tetrahydro-2H-pyran-4-yl)amino)-5H-pyrrolo[3,4-d]pyrimidine-6(7H)-carboxamide]

The remaining lines, values behind:

Row | Structure (SMILES) | IC50 [nM]
13 | CC1(C)c2cnc(NC3CCOCC3)nc2CN1C(=O)NCC1CCOCC1 [compound 16, 5,5-dimethyl-2-((tetrahydro-2H-pyran-4-yl)amino)-N-((tetrahydro-2H-pyran-4-yl)methyl)-5H-pyrrolo[3,4-d]pyrimidine-6(7H)-carboxamide] | 362
14 | CC1(C)c2cnc(NC3CCOCC3)nc2CN1C(=O)N[C@@H]1CC1c1ccccc1 (stereo partly drawn) [compound 9, 5,5-dimethyl-N-((1R)-2-phenylcyclopropyl)-2-((tetrahydro-2H-pyran-4-yl)amino)-5H-pyrrolo[3,4-d]pyrimidine-6(7H)-carboxamide] | 23
15 | CC1(C)c2cnc(NC3CCOC3)nc2CN1C(=O)N[C@H](CO)c1ccccc1 (stereo partly drawn) [compound 12, N-((S)-2-hydroxy-1-phenylethyl)-5,5-dimethyl-2-((tetrahydrofuran-3-yl)amino)-5H-pyrrolo[3,4-d]pyrimidine-6(7H)-carboxamide] | 375
16 | C[C@@H](NC(=O)N1Cc2nc(NC3CCOCC3)ncc2C1(C)C)c1cccc(Cl)c1 [compound 22, (R)-N-(1-(3-chlorophenyl)ethyl)-5,5-dimethyl-2-((tetrahydro-2H-pyran-4-yl)amino)-5H-pyrrolo[3,4-d]pyrimidine-6(7H)-carboxamide] | 2
17 | CC1(C)c2cnc(NC3CCOCC3)nc2CN1C(=O)NCc1cc(F)cc(Cl)c1 [compound 13, N-(3-chloro-5-fluorobenzyl)-5,5-dimethyl-2-((tetrahydro-2H-pyran-4-yl)amino)-5H-pyrrolo[3,4-d]pyrimidine-6(7H)-carboxamide] | 8
18 | CC1(C)c2cnc(NC3CCOCC3)nc2CN1C(=O)N[C@H](CO)c1cccc(Cl)c1 [compound 2, (S)-N-(1-(3-chlorophenyl)-2-hydroxyethyl)-5,5-dimethyl-2-((tetrahydro-2H-pyran-4-yl)amino)-5H-pyrrolo[3,4-d]pyrimidine-6(7H)-carboxamide] | 4
19 | CC1(C)c2cnc(NC3CCOCC3)nc2CN1C(=O)NC1CCOCC1 [compound 18, 5,5-dimethyl-N-(tetrahydro-2H-pyran-4-yl)-2-((tetrahydro-2H-pyran-4-yl)amino)-5H-pyrrolo[3,4-d]pyrimidine-6(7H)-carboxamide] | 2390
20 | CC1(C)c2cnc(NC3CCCOC3)nc2CN1C(=O)N[C@H](CO)c1ccccc1 (stereo partly drawn) [compound 25, N-((S)-2-hydroxy-1-phenylethyl)-5,5-dimethyl-2-((tetrahydro-2H-pyran-3-yl)amino)-5H-pyrrolo[3,4-d]pyrimidine-6(7H)-carboxamide] | 193
21 | CC1(C)c2cnc(NC3CCOCC3)nc2CN1C(=O)NCc1ccc(F)cc1 [compound 24, N-(4-fluorobenzyl)-5,5-dimethyl-2-((tetrahydro-2H-pyran-4-yl)amino)-5H-pyrrolo[3,4-d]pyrimidine-6(7H)-carboxamide] | 22
22 | CC1(C)c2cnc(NC3CCOCC3)nc2CN1C(=O)NCc1cccc(Cl)c1 [compound 21, N-(3-chlorobenzyl)-5,5-dimethyl-2-((tetrahydro-2H-pyran-4-yl)amino)-5H-pyrrolo[3,4-d]pyrimidine-6(7H)-carboxamide] | 6

Same assay, conditions: comparative example text; read-out: IC50 on ERK2

Row | IC50 [nM] | Structure (SMILES)
23 | 360 | C[C@@H](NC(=O)N1Cc2cnc(NC3CCOCC3)nc2C1)c1ccccc1 [Comparative Example, reference compound]
